Measured values taken from patent publication US20110294728A1, “Antiviral Polypeptides” (priority 2008, published 2011).
Values joined by “and” are separate entries in the source; they are usually repeats but may differ in a detail not shown here. Equal values may be shown once. Where no end group is shown, it is not given here.

How the values were obtained:
[1] = target: T1, HIV-1 RT (Human immunodeficiency virus type 1 group M subtype B, UniProt P03366); assay: biochemical
T1 construct: The heterodimeric p66/p51 RT was eluted with an imidazole gradient; p66 and p51 derived from p66 by proteolytic cleavage of the C-terminal RNAse H domain; made in house; host or cells: E. coli (M15 for the His-tagged subunits)
Method in brief: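 HIV-1 RT (20 nM, as added) was preincubated 23 h with increasing peptide concentrations, then reaction buffer was added (Tris pH 8.0, KCl, MgCl2, DTT, 0.15 µM poly(rA)-(dT)15, 15 µM dTTP plus 3H-dTTP, as added) for 30 min at 37 °C. Incorporated 3H was measured after TCA precipitation and filtration by scintillation counting; mean of three experiments.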

[2] = target: IN/DNA complexes (Human immunodeficiency virus type 1 group M subtype B, UniProt P04585); assay: Dissociation of pre-formed IN-DNA substrate complexes; format: biochemical, HIV-1
Description: For dissociation experiments, IN-DNA substrate complexes were pre-formed at 25° C. before addition of peptides. The peptide-mediated dissociation of complexes was then studied at the same temperature by measuring the decrease in the r value as a function of time.

[3] = target: IN/LEDGF complex (Human immunodeficiency virus type 1 group M subtype B, UniProt P04585); assay: Dissociation of IN/LEDGF complex (AlphaScreen, immunoprecipitation); format: biochemical
Description: Dissociation of IN/LEDGF complex was measured by fluorescence resonance energy transfer (AlphaScreen® technology) and immunoprecipitation experiments: • Amplified Luminescent Proximity Homogeneous Assay (ALPHA): when the proteins (IN and LEDGF), linked to acceptor and donor beads, interact together (i.e., are into close proximity), a photosignal (a high amplified signal with output in the 520-560 nm range) is detected; when the proteins are not in close proximity, the reactive oxygen decays and there is no detectable signal generated; • immunoprecipitation (IP) was performed using polyclonal anti LEDGF antibodies (purchased from Santa Cruz Biotechnology, USA) and polyclonal HA antibodies (purchased from Eurogentec, Belgium). Cell line expression HA-tagged integrase was using for the experiment in the presence of increasing concentrations of peptide inhibitors.

[4] = system: HIV-1 strain RF; settings: strain RF (RP in Table 5); peptide with Pep-1 or Pep-3 at ratio 20/1; combinations with Pep-3
[5] = system: HIV-1 215Y; format: cell-based; settings: AZT-resistant
[6] = system: HIV-1 74V; format: cell-based; settings: resistant to ddI and ddC

For GTKWLTEVWPL [Peptide P16], the Ki [1] was 14400 nM, the “reduction of efficiency (higher Ki) relative to PAW” value ([1]; relative to PAW) was 20 fold and the EC50 [2] was 11000 nM. For the same sequence, the EC50 [3] was 800 nM and the IC50 [4] was 10.9 nM.

In the case of GTKWLTEWIPLTAE [Peptide P27], the Ki [1] is reported as 50 ± 0.01 nM, the “increase of efficiency relative to PAW” value ([1]; relative to PAW) is reported as 14 fold and the EC50 [2] is reported as over 100000 nM. For the same sequence, the IC50 [5] was 2.7 nM and 3.9 nM, the IC50 [6] was 3.8 nM and 4.9 nM and the IC50 [4] was 1.5 nM.
